In patent US20240043435A1, “TYK-2 INHIBITOR” (BEIGENE, LTD., priority 2020, published 2024):
One block for each molecule: values may come before it.

What was measured:
[1] = biological target: T1, TYK2-JH2 (aa 575-869, in-house) protein (Homo sapiens, UniProt P29597); experiment: TYK2-JH2 biochemical assay (HTRF probe displacement); format: binding; conditions: Biochemical assay; read-out: TYK2-JH2 IC50
T1 construct: TYK2-JH2 (aa 575-869, in-house) protein; made in house
Summary of the method: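 HTRF probe-displacement format: compound dilutions (10 points, 5-fold, from 500 uM in DMSO at 500×) were combined with 0.2 nM TYK2-JH2 protein for 0.5 h at room temperature in HEPES pH 7.5 buffer with MgCl2, BSA, DTT and Brij-35. Percent inhibition came from the 615/665 nm fluorescence ratio, fitted to a four-parameter logistic for IC50.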

[2] = tested on: JAK2, TYK2/p-STAT4 (Tyr693) activated by IL-12 in NK-92 cell line; experiment: IL-12-JAK2, TYK2/p-STAT4 (Tyr693) inhibition IC50 cellular assay; format: cell-based; conditions: for Selectivity fold (TYK2/JAK2): Cellular assay, pSTAT5/GM-CSF IC50 vs pSTAT4/IL-12 IC50; for IC50: NK92, Cellular assay, read-out: pSTAT4/IL-12 IC50
Summary of the method: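 p-STAT4 (Tyr693) in lysates was measured by AlphaLISA SureFire Ultra after a 30 min IL-12 challenge (40 ng/ml final) at 37° C. Overnight-starved, IL-2-free NK-92 cells had been pretreated 1 h with compound at 10000 to 0.61 nM (4-fold, 8 points). IC50 values came from four-parameter logistic fitting.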

[3] = tested on: pSTAT5/GM-CSF; experiment: pSTAT5/GM-CSF cellular assay (JAK2 selectivity); format: cell-based; conditions: for Selectivity fold (TYK2/JAK2): pSTAT5/GM-CSF IC50 over pSTAT4/IL-12 IC50

T1 sequence (P29597 575-869): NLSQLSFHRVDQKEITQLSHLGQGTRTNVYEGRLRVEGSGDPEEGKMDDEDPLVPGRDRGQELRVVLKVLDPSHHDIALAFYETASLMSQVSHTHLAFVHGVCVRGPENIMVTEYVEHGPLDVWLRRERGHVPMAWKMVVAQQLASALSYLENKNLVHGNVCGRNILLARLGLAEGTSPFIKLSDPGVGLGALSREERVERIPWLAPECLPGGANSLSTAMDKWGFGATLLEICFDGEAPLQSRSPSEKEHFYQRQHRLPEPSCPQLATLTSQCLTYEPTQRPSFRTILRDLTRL

- IC50 [1]: 0.021 nM
- IC50 [2]: 1.43 nM
- IC50 [3]: > 10000 nM
SMILES: CC(=O)Nc1cc(Nc2cc(C(F)(F)F)cc(S(C)(=O)=O)n2)c(-c2ccn(C)n2)cn1 [Example J52, N-(5-(1-methyl-1H-pyrazol-3-yl)-4-((6-(methylsulfonyl)-4-(trifluoromethyl)pyridin-2-yl)amino)pyridin-2-yl)acetamide]
- Selectivity fold (TYK2/JAK2) [3]: >699 fold

- IC50 [1]: 0.044 nM
- IC50 [2]: 0.862 nM
- IC50 [3]: 1350 nM
SMILES: COc1ccc(S(C)(=O)=O)nc1Nc1cc(NC(C)=O)ncc1-c1ccn(C)n1 [Example J23, N-(4-((3-methoxy-6-(methylsulfonyl)pyridin-2-yl)amino)-5-(1-methyl-1H-pyrazol-3-yl)pyridin-2-yl)acetamide]
- Selectivity fold (TYK2/JAK2) [3]: 1570 fold

- IC50 [1]: 0.033 nM
- IC50 [2]: 11.4 nM
- IC50 [3]: > 10000 nM
SMILES: CC(=O)Nc1cc(Nc2cc(OC[C@H](C)O)cc(S(C)(=O)=O)c2)c(-c2ccn(C)n2)cn1 [Example J55, (S)-N-(4-((3-(2-hydroxypropoxy)-5-(methylsulfonyl)phenyl)amino)-5-(1-methyl-1H-pyrazol-3-yl)pyridin-2-yl)acetamide]
- Selectivity fold (TYK2/JAK2) [3]: >878 fold

- IC50 [1]: 0.025 nM
- IC50 [2]: 3.02 nM
- IC50 [3]: > 10000 nM
SMILES: COCCOc1cc(Nc2cc(NC(C)=O)ncc2-c2cc3c(cn2)OCCO3)nc(S(C)(=O)=O)c1 [Example Q19, N-(5-(2,3-dihydro-[1,4]dioxino[2,3-c]pyridin-7-yl)-4-((4-(2-methoxyethoxy)-6-(methylsulfonyl)pyridin-2-yl)amino)pyridin-2-yl)acetamide]
- Selectivity fold (TYK2/JAK2) [3]: >3311 fold

- IC50 [1]: 0.016 nM
- IC50 [2]: 5.9 nM
- IC50 [3]: > 10000 nM
SMILES: CC(=O)Nc1cc(Nc2cc(OCCO)cc(S(C)(=O)=O)n2)c(-c2ccn(C)n2)cn1 [Example J15, N-(4-((4-(2-hydroxyethoxy)-6-(methylsulfonyl)pyridin-2-yl)amino)-5-(1-methyl-1H-pyrazol-3-yl)pyridin-2-yl)acetamide]
- Selectivity fold (TYK2/JAK2) [3]: >1694 fold

- IC50 [1]: 0.018 nM
- IC50 [2]: 0.462 nM
- IC50 [3]: > 10000 nM
SMILES: CC(=O)Nc1cc(Nc2nc(S(C)(=O)=O)ccc2OC(F)F)c(-c2ccn(C)n2)cn1 [Example J63, N-(4-((3-(difluoromethoxy)-6-(methylsulfonyl)pyridin-2-yl)amino)-5-(1-methyl-1H-pyrazol-3-yl)pyridin-2-yl)acetamide]
- Selectivity fold (TYK2/JAK2) [3]: >21645 fold

- IC50 [1]: 0.023 nM
- IC50 [2]: 0.91 nM
- IC50 [3]: > 10000 nM
SMILES: CC(=O)Nc1cc(Nc2cc(C)cc(S(C)(=O)=O)n2)c(-c2cc3c(cn2)OCCO3)cn1 [Example Q18, N-(5-(2,3-dihydro-[1,4]dioxino[2,3-c]pyridin-7-yl)-4-((4-methyl-6-(methylsulfonyl)pyridin-2-yl)amino)pyridin-2-yl)acetamide]
- Selectivity fold (TYK2/JAK2) [3]: >10989 fold

- IC50 [1]: 0.019 nM
- IC50 [2]: 1.42 nM
- IC50 [3]: > 10000 nM
SMILES: CC(=O)Nc1cc(Nc2cc(C3CCOCC3)cc(S(C)(=O)=O)n2)c(-c2ccn(C)n2)cn1 [Example J61, N-(5-(1-methyl-1H-pyrazol-3-yl)-4-((6-(methylsulfonyl)-4-(tetrahydro-2H-pyran-4-yl)pyridin-2-yl)amino)pyridin-2-yl)acetamide]
- Selectivity fold (TYK2/JAK2) [3]: >7042 fold

- IC50 [1]: 0.031 nM
- IC50 [2]: 0.828 nM
- IC50 [3]: 1420 nM
SMILES: CC(=O)Nc1cc(Nc2cc(C)cc(S(C)(=O)=O)n2)c(-c2ccn(C3CCOC3)n2)cn1 (stereo not shown) [Example M31, N-(4-((4-methyl-6-(methylsulfonyl)pyridin-2-yl)amino)-5-(1-(tetrahydrofuran-3-yl)-1H-pyrazol-3-yl)pyridin-2-yl)acetamide]
- Selectivity fold (TYK2/JAK2) [3]: 1714 fold

- IC50 [1]: 0.041 nM
- IC50 [2]: 1.09 nM
- IC50 [3]: > 10000 nM
SMILES: CCn1ccc(-c2cnc(NC(C)=O)cc2Nc2cc(OC3CCCC3)cc(S(C)(=O)=O)n2)n1 [Example M17, N-(4-((4-(cyclopentyloxy)-6-(methylsulfonyl)pyridin-2-yl)amino)-5-(1-ethyl-1H-pyrazol-3-yl)pyridin-2-yl)acetamide]
- Selectivity fold (TYK2/JAK2) [3]: >9174 fold

- IC50 [1]: 0.037 nM
- IC50 [2]: 4.85 nM
- IC50 [3]: > 10000 nM
SMILES: CC(=O)Nc1cc(Nc2cc(OC(F)F)cc(S(C)(=O)=O)c2)c(-c2ccn(C)n2)cn1 [Example J62, N-(4-((3-(difluoromethoxy)-5-(methylsulfonyl)phenyl)amino)-5-(1-methyl-1H-pyrazol-3-yl)pyridin-2-yl)acetamide]
- Selectivity fold (TYK2/JAK2) [3]: >2061 fold

More lines, now with the values behind:

SMILES: CC(=O)Nc1cc(Nc2cc(OC(C)C)cc(S(C)(=O)=O)n2)c(-c2ccc(C(C)(C)O)cn2)cn1 [Example H2, N-(5-(2-hydroxypropan-2-yl)-4′-((4-isopropoxy-6-(methylsulfonyl)pyridin-2-yl)amino)-[2,3′-bipyridin]-6′-yl)acetamide]
- IC50 [1]: 0.036 nM
- Selectivity fold (TYK2/JAK2) [2]: >10649 fold
- IC50 [2]: 0.939 nM
- IC50 [3]: > 10000 nM

SMILES: CC(=O)Nc1cc(Nc2cc(OC3CC3)cc(S(C)(=O)=O)c2)c(-c2ccc(C(C)(C)O)cn2)cn1 [Example H23, N-(4′-((3-cyclopropoxy-5-(methylsulfonyl)phenyl)amino)-5-(2-hydroxypropan-2-yl)-[2,3′-bipyridin]-6′-yl)acetamide]
- IC50 [1]: 0.034 nM
- Selectivity fold (TYK2/JAK2) [2]: >1754 fold
- IC50 [2]: 5.7 nM
- IC50 [3]: > 10000 nM

SMILES: COC(C)COc1cc(Nc2cc(NC(C)=O)ncc2-c2ccc(C(C)(C)O)cn2)nc(S(C)(=O)=O)c1 (stereo not shown) [Example H7, N-(5-(2-hydroxypropan-2-yl)-4′-((4-(2-methoxypropoxy)-6-(methylsulfonyl)pyridin-2-yl)amino)-[2,3′-bipyridin]-6′-yl)acetamide]
- IC50 [1]: 0.046 nM
- Selectivity fold (TYK2/JAK2) [2]: >8196 fold
- IC50 [2]: 1.22 nM
- IC50 [3]: > 10000 nM

SMILES: CC(=O)Nc1cc(Nc2cc(O[C@H]3C[C@@H](O)C3)cc(S(C)(=O)=O)n2)c(-c2ccn(C)n2)cn1 [Example J17, N-(4-((4-((cis)-3-hydroxycyclobutoxy)-6-(methylsulfonyl)pyridin-2-yl)amino)-5-(1-methyl-1H-pyrazol-3-yl)pyridin-2-yl)acetamide]
- IC50 [1]: 0.043 nM
- IC50 [2]: 6.8 nM
- IC50 [3]: > 10000 nM
- Selectivity fold (TYK2/JAK2) [3]: >1470 fold

SMILES: [2H]C([2H])([2H])Oc1cc(Nc2cc(NC(C)=O)ncc2-c2ccc(F)cn2)nc(S(C)(=O)=O)c1 [Example F24, N-(5-fluoro-4′-((4-(methoxy-d3)-6-(methylsulfonyl)pyridine-2-yl)amino)-[2,3′-bipyridin]-6′-yl)acetamide]
- IC50 [1]: 0.033 nM
- Selectivity fold (TYK2/JAK2) [2]: >12195 fold
- IC50 [2]: 0.82 nM
- IC50 [3]: > 10000 nM

SMILES: COCCn1ccc(-c2cnc(NC(C)=O)cc2Nc2cc(C)cc(S(C)(=O)=O)n2)n1 [Example A15, N-(5-(1-(2-methoxyethyl)-1H-pyrazol-3-yl)-4-((4-methyl-6-(methylsulfonyl)pyridin-2-yl)amino)pyridin-2-yl)acetamide]
- IC50 [1]: 0.04 nM
- Selectivity fold (TYK2/JAK2) [2]: 5039 fold
- IC50 [2]: 0.687 nM
- IC50 [3]: 3460 nM

SMILES: CC(=O)Nc1cc(Nc2cc(N3CCC(O)C3)cc(S(C)(=O)=O)c2)c(-c2ccc(C(C)(C)O)cn2)cn1 (stereo not shown) [Example H17, N-(5-(2-hydroxypropan-2-yl)-4′-((3-(3-hydroxypyrrolidin-1-yl)-5-(methylsulfonyl)phenyl)amino)-[2,3′-bipyridin]-6′-yl)acetamide]
- IC50 [1]: 0.034 nM
- Selectivity fold (TYK2/JAK2) [2]: >149 fold
- IC50 [2]: 67 nM
- IC50 [3]: > 10000 nM

SMILES: CC[C@H](C)Oc1cc(Nc2cc(NC(C)=O)ncc2-c2ccn(C)n2)nc(S(C)(=O)=O)c1 [Example J60, (S)-N-(4-((4-(sec-butoxy)-6-(methylsulfonyl)pyridin-2-yl)amino)-5-(1-methyl-1H-pyrazol-3-yl)pyridin-2-yl)acetamide]
- IC50 [1]: 0.021 nM
- IC50 [2]: 0.797 nM
- IC50 [3]: > 10000 nM
- Selectivity fold (TYK2/JAK2) [3]: >12547 fold

SMILES: CC(=O)Nc1cc(Nc2cccc(S(C)(=O)=O)n2)c(-c2ccc(N3C[C@@H](C)O[C@@H](C)C3)cn2)cn1 [Example C2, N-(5-((cis)-2,6-dimethylmorpholino)-4′-((6-(methylsulfonyl)pyridin-2-yl)amino)-[2,3′-bipyridin]-6′-yl)acetamide]
- IC50 [1]: 0.026 nM
- Selectivity fold (TYK2/JAK2) [2]: 3083 fold
- IC50 [2]: 0.312 nM
- IC50 [3]: 962 nM

SMILES: CC(=O)Nc1cc(Nc2cc(OCC3CC3)cc(S(C)(=O)=O)c2)c(-c2ccc(C(C)(C)O)cn2)cn1 [Example H22, N-(4′-((3-(cyclopropylmethoxy)-5-(methylsulfonyl)phenyl)amino)-5-(2-hydroxypropan-2-yl)-[2,3′-bipyridin]-6′-yl)acetamide]
- IC50 [1]: 0.038 nM
- Selectivity fold (TYK2/JAK2) [2]: >3623 fold
- IC50 [2]: 2.76 nM
- IC50 [3]: > 10000 nM

SMILES: CC(=O)Nc1cc(Nc2cc(C)cc(S(C)(=O)=O)c2)c(-c2ccc(C(C)(C)O)cn2)cn1 [Example H21, N-(5-(2-hydroxypropan-2-yl)-4′-((3-methyl-5-(methylsulfonyl)phenyl)amino)-[2,3′-bipyridin]-6′-yl)acetamide]
- IC50 [1]: 0.024 nM
- Selectivity fold (TYK2/JAK2) [2]: >4464 fold
- IC50 [2]: 2.24 nM
- IC50 [3]: > 10000 nM
